Experimental data: article PMC7321065, “Discovery of New Schiff Bases Tethered Pyrazole Moiety: Design, Synthesis, Biological Evaluation, and Molecular Docking Study as Dual Targeting DHFR/DNA Gyrase Inhibitors with Immunomodulatory Activity” (Molecules, 2020)
Converted amounts (≈) assume the structure as drawn. Where two headings read alike, the source gives them in different places.

Assays:
[1] = test system: P. aeruginosa ATCC BAA-2111; test: Inhibition zone against MDRB, agar plate diffusion; format: cell-based
[2] = test system: mammary gland breast cancer cell line (MCF-7); test: Antiproliferative activity, MTT assay; format: cell-based, human; conditions: Homo sapiens, MCF7, 48 h, read-out: IC50 MCF-7
Procedure: (§1) 3-[4, 5-Dimethyl-2-thiazolyl)-2, 5-diphenyl-2 H-tetrazolium bromide (MTT) protocol is based on the cleavage of the tetrazolium salt by mitochondrial dehydrogenases in viable cells. Cells were dispensed in a 96 well sterile microplate (5 x 10^4 cells/well), and incubated at 37 °C with series of different concentrations, in DMSO, of each tested compound or Doxorubicin ® (positive control) for 48 h in a serum free medium prior to the MTT assay. After incubation, media were carefully removed, 40 µL of MTT (2.5 mg/mL) were added to each well and then incubated for an additional 4 h. The purple formazan dye crystals were solubilized by the addition of 200 µL of DMSO. The absorbance was measured at 590 nm using a SpectraMax® Paradigm® Multi-Mode microplate reader. The relative cell viability was expressed as the mean percentage of viable cells compared to the untreated control cells.
(§2) All experiments were conducted in triplicate and repeated in three different days. All the values were represented as mean ± SD. IC 50s were determined by probit analysis using SPSS software program (SPSS

[3] = test system: hepatocellular carcinoma cell line (HepG2); test: Antiproliferative activity, MTT assay; format: cell-based, human
Procedure: as §1, §2

[4] = test system: P. aeruginosa ATCC BAA-2111; test: MIC/MBC against MDRB, paper disk diffusion; format: cell-based; conditions: Pseudomonas aeruginosa, ATCCBAA2111
From the text: (§3) The inhibition zone (IZ, mm±standard deviation) of pyrazole Schiff bases ( 6b, 7b, 7c, 8a, 8d and 9b) was
(§4) measurement according to the agar plate diffusion method against a panel of multidrug-resistant bacteria
(MDRB). […]

[5] = test system: E. coli ATCC BAA-196; test: MIC/MBC against MDRB, paper disk diffusion; format: cell-based; conditions: Escherichia coli, ATCCBAA196
From the text: as §3, §4
(MDRB). […]

[6] = test system: S. aureus ATCC 43300 (MRSA); test: MIC/MBC against MDRB, paper disk diffusion; format: cell-based; conditions: Staphylococcus aureus
From the text: as §3, §4
(MDRB). […]

[7] = test system: S. aureus ATCC 33591; test: MIC/MBC against MDRB, paper disk diffusion; format: cell-based; conditions: Staphylococcus aureus, ATCC33591
From the text: as §3, §4
(MDRB). […]

[8] = test system: S. aureus ATCC 43300 (MRSA); test: Inhibition zone against MDRB, agar plate diffusion; format: cell-based
[9] = test system: Candida albicans; test: MIC/MFC, paper disk diffusion; format: cell-based; conditions: Candida albicans
Procedure: (§5) Antimicrobial activities of the newly formed Schiff bases (6a–d, 7a–d, 8a–d, and 9a–d) and reference drugs were evaluated against three Gram-positive, three Gram-negative, and two fungi strain at Al-Azhar University, Cairo, Egypt. The inhibition zones (IZ, in mm ± standard deviation) and the minimal inhibitory concentration (MIC) (μg/mL) were determined by the conventional paper disk diffusion method.
(§6) In Vitro Antimicrobial Activities […]
(§7) DMSO was used for dissolving […]
(§8) the tested microorganisms.
(§9) The minimum inhibitory concentration (MIC), the minimum bactericidal concentration (MBC, µg/ml) and […]
(§10) and 9b) were determined by the conventional technique termed paper disk diffusion, by applying paper […]
(§11) Bacteria were grown on nutrient agar medium, while fungi and yeast were grown on Sabouraud agar medium. The purified streptomycin was dissolved in […]
(§12) inoculated with test organism. Growth inhibition was examined after 24 hr. from incubation at 37 °C for bacteria and after 72 hr. incubation at 27 °C for fungi and yeast. Each test was repeated three times. MIC was expressed as the lowest concentration inhibiting test organism’s growth. […]

[10] = test system: Fusarium oxysporum; test: MIC/MFC, paper disk diffusion; format: cell-based; conditions: Fusarium oxysporum
Procedure: as §5, §6, §7, §8, §9, §10, §11, §12

[11] = test system: E. coli ATCC BAA-196; test: Inhibition zone against MDRB, agar plate diffusion; format: cell-based
[12] = test system: Candida albicans; test: Inhibition zone, agar plate diffusion; format: cell-based; conditions: read-out: Inhibition zone (IZ)
Procedure: as §5
(§13) In Vitro Antimicrobial Activities
(§14) The antimicrobial activities inhibition zone (IZ, mm±standard deviation) of pyrazole Schiff bases ( 6a-d , 7a-d, 8a-d and 9a-d ) was measurement according to the agar plate diffusion method. Briefly, 100 µl of the […]
(§15) […] of each sample (at 0.5 mg/mL) was added to each well (10 mm diameter holes cut in the agar gel). The plates were incubated for 24 h at 37 °C (for bacteria and yeast) and for 72 h at 27 °C (for filamentous fungi), each test was repeated three times. After incubation, the microorganism's growth was observed. […]
(§16) drugs while Amphotericin B was used as standard antifungal drug. The resulting inhibition zone diameters were measured in millimeters and used as criterion for the antimicrobial activity. Solvent controls (DMSO) were included in every experiment as negative controls. DMSO was used for dissolving […]
(§17) the tested microorganisms. […]
(§18) Bacteria were grown on nutrient agar medium, while fungi and yeast were grown on Sabouraud agar medium. […]

[13] = test system: Staphylococcus aureus; test: Inhibition zone, agar plate diffusion; format: cell-based; conditions: read-out: Inhibition zone (IZ)
Procedure: as §5, §13, §14, §15, §16, §17, §18

[14] = test system: Fusarium oxysporum; test: Inhibition zone, agar plate diffusion; format: cell-based; conditions: read-out: Inhibition zone (IZ)
Procedure: as §5, §13, §14, §15, §16, §17, §18

[15] = test system: Salmonella typhi; test: Inhibition zone, agar plate diffusion; format: cell-based; conditions: Salmonella enterica, St, mm ± standard deviation, sample at 0.5 mg/mL, read-out: Inhibition zone (IZ)
Procedure: as §5, §13, §14, §15, §16, §17, §18

[16] = test system: Enterococcus faecalis; test: MIC/MBC, paper disk diffusion; format: cell-based
Procedure: as §5, §6, §7, §8, §9, §10, §11, §12

[17] = test system: Pseudomonas aeruginosa; test: MIC/MBC, paper disk diffusion; format: cell-based; conditions: Pseudomonas aeruginosa
Procedure: as §5, §6, §7, §8, §9, §10, §11, §12

[18] = test system: Staphylococcus aureus; test: MIC/MBC, paper disk diffusion; format: cell-based
Procedure: as §5, §6, §7, §8, §9, §10, §11, §12

[19] = test system: Salmonella typhi; test: MIC/MBC, paper disk diffusion; format: cell-based
Procedure: as §5, §6, §7, §8, §9, §10, §11, §12

[20] = test system: Escherichia coli; test: MIC/MBC, paper disk diffusion; format: cell-based; conditions: Escherichia coli
Procedure: as §5, §6, §7, §8, §9, §10, §11, §12

[21] = test system: Bacillus subtilis; test: MIC/MBC, paper disk diffusion; format: cell-based
Procedure: as §5, §6, §7, §8, §9, §10, §11, §12

[22] = test system: S. aureus ATCC 33591; test: Inhibition zone against MDRB, agar plate diffusion; format: cell-based
[23] = test system: Enterococcus faecalis; test: Inhibition zone, agar plate diffusion; format: cell-based; conditions: read-out: Inhibition zone (IZ)
Procedure: as §5, §13, §14, §15, §16, §17

[24] = test system: Pseudomonas aeruginosa; test: Inhibition zone, agar plate diffusion; format: cell-based; conditions: read-out: Inhibition zone (IZ)
Procedure: as §5, §13, §14, §15, §16, §17

[25] = test system: Escherichia coli; test: Inhibition zone, agar plate diffusion; format: cell-based; conditions: read-out: Inhibition zone (IZ)
Procedure: as §5, §13, §14, §15, §16, §17

[26] = test system: Bacillus subtilis; test: Inhibition zone, agar plate diffusion; format: cell-based; conditions: read-out: Inhibition zone (IZ)
Procedure: as §5, §13, §14, §15, §16, §17

## COc1ccc(Nc2n[nH]c(N=Cc3c(C)nn(-c4ccccc4)c3Cl)c2C(=O)Nc2ccccc2)cc1 [7b, 5-((5-Chloro-3-methyl-1-phenyl-1H-pyrazol-4-yl)methyleneamino)-3-(p-methoxyphenylamino)-N-phenyl-1H-pyrazole-4-carboxamide]
[1]
  Mean Diameter of Inhibition Zone against MDRB: 21 ± 0.33 mm
[2]
  IC50: 4.81 ± 0.25 µM
[3]; HepG-2
  Fold against doxorubicin (IC50): 0.54 fold
[3]; Homo sapiens, HepG2, 48 h, read-out: IC50 HepG-2
  IC50: 7.18 ± 0.49 µM
[4]
  MBC: 15.6 µg/mL (≈ 29.7 µM)
  MIC: 7.81 µg/mL (≈ 14.8 µM)
[5]
  MBC: 18.5 µg/mL (≈ 35.2 µM)
  MIC: 9.25 µg/mL (≈ 17.6 µM)
[6]
  MBC: 15.6 µg/mL (≈ 29.7 µM)
  MIC: 7.81 µg/mL (≈ 14.8 µM)
[7]
  MBC: 16 µg/mL (≈ 30.4 µM)
  MIC: 8.88 µg/mL (≈ 16.9 µM)
[8]
  Mean Diameter of Inhibition Zone against MDRB: 18 ± 0.11 mm
[9]
  MFC: 28.1 µg/mL (≈ 53.4 µM)
  MIC: 15.6 µg/mL (≈ 29.7 µM)
[10]
  MFC: 46.9 µg/mL (≈ 89.1 µM)
  MIC: 31.2 µg/mL (≈ 59.4 µM)
[11]
  Mean Diameter of Inhibition Zone against MDRB: 20 ± 0.44 mm
[12]
  zone of inhibition at 500 µg/mL: 21 ± 0.2 mm
[13]
  zone of inhibition at 500 µg/mL: 23 ± 0.55 mm
[14]
  zone of inhibition at 500 µg/mL: 17 ± 0.45 mm
[15]
  zone of inhibition at 500 µg/mL: 22 ± 0.12 mm
[16]
  MIC: 3.9 µg/mL (≈ 7.41 µM)
[16]; E. faecalis
  MBC: 6.63 µg/mL (≈ 12.6 µM)
[17]
  MIC: 31.2 µg/mL (≈ 59.4 µM)
[17]; P. aeruginosa
  MBC: 59.4 µg/mL (≈ 113 µM)
[18]; S. aureus
  Fold more potent than Tetracycline (MIC): 32 fold
[18]; Staphylococcus aureus
  MIC: 1.95 µg/mL (≈ 3.71 µM)
[18]; Staphylococcus aureus, S. aureus
  MBC: 3.7 µg/mL (≈ 7.03 µM)
[19]
  Fold more potent than Tetracycline (MIC): 8 fold
[19]; S. typhi
  Fold more potent than the standard drug (MBC): ~6.6 fold
[19]; Salmonella enterica, S. typhi
  MIC: 3.9 µg/mL (≈ 7.41 µM)
[19]; Salmonella enterica, S. typhi, read-out: MBC
  MBC: 6.63 µg/mL (≈ 12.6 µM)
[20]
  MIC: 7.81 µg/mL (≈ 14.8 µM)
[20]; E. coli
  MBC: 12.5 µg/mL (≈ 23.7 µM)
[21]; B. subtilis
  Fold more potent than Tetracycline (MIC): 5 fold
[21]; Bacillus subtilis
  MIC: 5.57 µg/mL (≈ 10.6 µM)
[21]; Bacillus subtilis, B. subtilis
  MBC: 10.6 µg/mL (≈ 20.1 µM)
[22]
  Mean Diameter of Inhibition Zone against MDRB: 15 ± 0.41 mm
[23]
  zone of inhibition at 500 µg/mL: 25 ± 0.3 mm
[24]
  zone of inhibition at 500 µg/mL: 24 ± 0.78 mm
[25]
  zone of inhibition at 500 µg/mL: 21 ± 0.14 mm
[26]
  zone of inhibition at 500 µg/mL: 28 ± 0.16 mm

## CCn1cc(C(=O)O)c(=O)c2cc(F)c(N3CCNCC3)cc21 [Norfloxacin, reference compound]
[1]
  Mean Diameter of Inhibition Zone against MDRB: 24 ± 0.47 mm
[4]; P. aeruginosa ATCC BAA-2111, read-out: MBC
  MBC: 4.69 µg/mL (≈ 14.7 µM)
[4]; P. aeruginosa ATCC BAA-2111, read-out: MIC
  MIC: 3.13 µg/mL (≈ 9.8 µM)
[5]; E. coli ATCC BAA-196, read-out: MBC
  MBC: 3.53 µg/mL (≈ 11.1 µM)
[5]; E. coli ATCC BAA-196, read-out: MIC
  MIC: 1.57 µg/mL (≈ 4.92 µM)
[6]; S. aureus ATCC 43300, read-out: MBC
  MBC: 2.81 µg/mL (≈ 8.8 µM)
[6]; S. aureus ATCC 43300, read-out: MIC
  MIC: 1.25 µg/mL (≈ 3.91 µM)
[7]; S. aureus ATCC 33591, read-out: MBC
  MBC: 1.56 µg/mL (≈ 4.89 µM)
[7]; S. aureus ATCC 33591, read-out: MIC
  MIC: 0.78 µg/mL (≈ 2.44 µM)
[8]
  Mean Diameter of Inhibition Zone against MDRB: 25 ± 0.50 mm
[11]
  Mean Diameter of Inhibition Zone against MDRB: 27 ± 0.98 mm
[22]
  Mean Diameter of Inhibition Zone against MDRB: 26 ± 0.5 mm
